Data: US10688200B2, “Urea-based prostate specific membrane antigen (PSMA) inhibitors for imaging and therapy” (Five Eleven Pharma Inc., priority 2015, dated 2020)

Columns and labels:
[1] = system: PSMA-expressing LNCaP cells; test: Cell binding and internalization; type: cell-based, human; conditions: for Cell surface binding activity / Internalized activity: 37° C.
Experimental: The cellular uptake and internalization kinetics of the [^68Ga]1a, [^68Ga]5a and [^68Ga]5b were determined using PSMA-expressing LNCaP cells. Furthermore, to be able to discriminate between total cellular activity (sum of membrane-associated and internalized activity) and internalized activity, all incubations were followed by a washing step with mild acid at 4° C. to remove specifically cell-surface bound radioligand by displacement.
LNCaP cells (in 6-well plates in triplicates) were incubated in RPMI-1640 medium with [^68Ga]1a, [^68Ga]5a or [^68Ga]5b for 0-2 h at 37° C. At the indicated time, the medium was removed and the cells were washed twice and then incubated with a mild acid buffer (50 mM glycine, 150 mM NaCl, pH 3.0) at 4° C. for 5 min. The supernatant (containing cell surface-bound radioactivity) was pooled and the cell pellet (containing internalized radioactivity) was collected with filter paper and then radioactivity in supernatant and cell pellet was counted on a gamma counter.
LNCaP cells were incubated with [^68Ga]1a, [^68Ga]5a and [^68Ga]5b for up to 2 h at 37° C. to determine whether the compound is internalized by endocytosis. The cells were then washed with a mild acid buffer to remove extracellularly bound compound.
Non specific binding (NSB) was evaluated by blocking with 20 μM PMPA. Specificity of cell uptake (SB) was calculated by subtracting the respective signals resulting from PMPA blocking. Values are expressed as % of applied radioactivity bound to 10^6 cells.

[2] = system: LNCaP tumor bearing nude mice; test: Biodistribution of [68Ga]labeled ligand in PSMA positive tumor bearing nude mice; type: in vivo, mouse; conditions: 1 h post-injection, i.v., n = 3
Experimental: In a dish contained 5×10^6 cells of LNCaP in 50% Matrigel (Becton Dickinson, Heidelberg, Germany) were subcutaneously inoculated into the left shoulder of male 5- to 6-week-old CD-1 nu/nu mice (Charles River Laboratories). The tumors were allowed to grow for 8 weeks until approximately 0.5 cm^3 in size.
The ^68Ga-radiolabeled compounds were injected via tail vein (25 μCi per mouse; 0.1-0.2 nmol). At 1 h after injection, the animals were sacrificed. Organs of interest were dissected and weighed. The radioactivity was measured with a gamma counter and calculated as % ID/g.

[3] = Biodistribution of radiotracers in normal mice; type: in vivo, mouse; conditions: for Biodistribution: Blood / Biodistribution: Bone / Biodistribution: Brain / Biodistribution: Heart / Biodistribution: Kidney / Biodistribution: Liver / Biodistribution: Lung / Biodistribution: Muscle / Biodistribution: Pancreas / Biodistribution: Skin / Biodistribution: Spleen: normal male mice
Method in brief: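 Male CD-1 mice received 35 μCi [^68Ga] radiotracer (0.2 nmole ligand) by tail vein. Four mice per time point sacrificed at 2, 30, 60 and 120 min p.i.; organs and blood weighed and gamma counted. %ID/g calculated against a standard dilution of the dose, decay-corrected.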

[4] = system: LNCaP PSMA+ and PC-3 PSMA− tumor bearing mice; test: Small animal microPET imaging of [68Ga]5b in tumor bearing nude mice; type: in vivo, mouse
Experimental: This study was performed in a small animal imaging facility Male CD-1-nu/nu mice were implanted subcutaneously with 5×10^6 LNCaP cells and PC-3 cells. When the tumors reached approximately 5-10 mm in diameter, the mice were used for microPET imaging. Mice bearing LNCaP tumor and PC-3 tumors were injected via the tail vein with ˜0.5 mCi of [^68Ga]5b. Imaging studies were carried out under general anesthesia of the animals, induced with inhalation of […] and maintained with inhalation of […] isoflurane in 30% oxygen/air. Animals were positioned prone in the scanner. Whole body scan was performed for 15 min from 60 min post-injection of radiotracers. PET images were generated using the AMIDE software. MicroPET images obtained in LNCaP and PC-3 tumor xenografts from 60 min to 75 min after injection of [^68Ga]5b are shown in FIGS. 5A-5C.

[5] = 60 min to 75 min after injection

O=C(O)CCc1ccc2c(c1)C[N+]13CC[N+]45CC(=O)[O][68Ga-3]14([O]C(=O)C3)([O]2)[O]c1ccc(CCC(=O)NCC(=O)N[C@@H](Cc2ccc(OCC(=O)N[C@@H](Cc3ccccc3)C(=O)NCCCC[C@H](NC(=O)N[C@@H](CCC(=O)O)C(=O)O)C(=O)O)cc2)C(=O)O)cc1C5 (some centres unmarked) [[^68Ga]5b]
Cell surface binding activity ([1]; 5 min): 2.50 ± 0.79 % ID/10^6 cells
Internalized activity ([1]; 5 min): 1.58 ± 0.30 % ID/10^6 cells
Cell surface binding activity ([1]; 15 min): 2.87 ± 0.10 % ID/10^6 cells
Internalized activity ([1]; 15 min): 4.08 ± 0.01 % ID/10^6 cells
Cell surface binding activity ([1]; 30 min): 3.54 ± 0.62 % ID/10^6 cells
Internalized activity ([1]; 30 min): 8.29 ± 0.54 % ID/10^6 cells
Cell surface binding activity ([1]; 60 min): 3.74 ± 0.33 % ID/10^6 cells
Internalized activity ([1]; 60 min): 12.5 ± 0.46 % ID/10^6 cells
Cell surface binding activity ([1]; 90 min): 5.03 ± 0.41 % ID/10^6 cells
Internalized activity ([1]; 90 min): 20.0 ± 2.54 % ID/10^6 cells
Cell surface binding activity ([1]; 120 min): 4.69 ± 0.45 % ID/10^6 cells
Internalized activity ([1]; 120 min): 18.9 ± 1.61 % ID/10^6 cells
Non specific binding (NSB) in LNCaP cell uptake, in words ([1]; blocking with 20 μM PMPA, FIG. 4): extremely low
Internalized activity, comparison in words ([1]; up to 2 h at 37° C.): much higher than those of [^68Ga]1a and [^68Ga]5a
Organ distribution: Blood [2]: 0.46 ± 0.04 % dose/g
Organ distribution: Bone [2]: 0.27 ± 0.07 % dose/g
Organ distribution: Brain [2]: 0.05 ± 0.01 % dose/g
Organ distribution: Heart [2]: 0.51 ± 0.12 % dose/g
Organ distribution: Liver [2]: 0.78 ± 0.09 % dose/g
Organ distribution: Lung [2]: 2.27 ± 0.37 % dose/g
Organ distribution: Muscle [2]: 0.34 ± 0.07 % dose/g
Organ distribution: Pancreas [2]: 0.97 ± 0.23 % dose/g
Organ distribution: Skin [2]: 1.16 ± 0.57 % dose/g
Organ distribution: Spleen [2]: 11.09 ± 3.35 % dose/g
Clearance from organs, in words ([3]; normal CD-1 male mice): cleared quickly and well except kidneys and spleen
Biodistribution: Body leftover ([3]; normal CD-1 male mice, 2 min): 2.30 ± 0.05 % dose/g
Biodistribution: Fat ([3]; normal CD-1 male mice, 2 min): 2.08 ± 0.27 % dose/g
Biodistribution: Large intestine ([3]; normal CD-1 male mice, 2 min): 1.20 ± 0.20 % dose/g
Biodistribution: Seminal vesicles ([3]; normal CD-1 male mice, 2 min): 1.47 ± 0.25 % dose/g
Biodistribution: Small intestine ([3]; normal CD-1 male mice, 2 min): 2.46 ± 0.15 % dose/g
Biodistribution: Stomach ([3]; normal CD-1 male mice, 2 min): 0.81 ± 0.29 % dose/g
Biodistribution: Tail ([3]; normal CD-1 male mice, 2 min): 8.08 ± 0.78 % dose/g
Biodistribution: Testes ([3]; normal CD-1 male mice, 2 min): 0.96 ± 0.15 % dose/g
Biodistribution: Body leftover ([3]; normal CD-1 male mice, 30 min): 0.98 ± 0.05 % dose/g
Biodistribution: Fat ([3]; normal CD-1 male mice, 30 min): 1.45 ± 0.13 % dose/g
Biodistribution: Large intestine ([3]; normal CD-1 male mice, 30 min): 0.37 ± 0.04 % dose/g
Biodistribution: Seminal vesicles ([3]; normal CD-1 male mice, 30 min): 1.13 ± 0.19 % dose/g
Biodistribution: Small intestine ([3]; normal CD-1 male mice, 30 min): 1.03 ± 0.07 % dose/g
Biodistribution: Stomach ([3]; normal CD-1 male mice, 30 min): 0.31 ± 0.07 % dose/g
Biodistribution: Tail ([3]; normal CD-1 male mice, 30 min): 2.92 ± 0.95 % dose/g
Biodistribution: Testes ([3]; normal CD-1 male mice, 30 min): 1.14 ± 0.21 % dose/g
Biodistribution: Body leftover ([3]; normal CD-1 male mice, 60 min): 0.52 ± 0.11 % dose/g
Biodistribution: Fat ([3]; normal CD-1 male mice, 60 min): 0.73 ± 0.11 % dose/g
Biodistribution: Large intestine ([3]; normal CD-1 male mice, 60 min): 0.31 ± 0.21 % dose/g
Biodistribution: Seminal vesicles ([3]; normal CD-1 male mice, 60 min): 0.94 ± 0.22 % dose/g
Biodistribution: Small intestine ([3]; normal CD-1 male mice, 60 min): 0.74 ± 0.17 % dose/g
Biodistribution: Stomach ([3]; normal CD-1 male mice, 60 min): 0.17 ± 0.06 % dose/g
Biodistribution: Tail ([3]; normal CD-1 male mice, 60 min): 1.73 ± 0.55 % dose/g
Biodistribution: Testes ([3]; normal CD-1 male mice, 60 min): 0.82 ± 0.06 % dose/g
Biodistribution: Body leftover ([3]; normal CD-1 male mice, 120 min): 0.27 ± 0.01 % dose/g
Biodistribution: Fat ([3]; normal CD-1 male mice, 120 min): 0.35 ± 0.04 % dose/g
Biodistribution: Large intestine ([3]; normal CD-1 male mice, 120 min): 0.54 ± 0.16 % dose/g
Biodistribution: Seminal vesicles ([3]; normal CD-1 male mice, 120 min): 0.64 ± 0.10 % dose/g
Biodistribution: Small intestine ([3]; normal CD-1 male mice, 120 min): 0.45 ± 0.12 % dose/g
Biodistribution: Stomach ([3]; normal CD-1 male mice, 120 min): 0.22 ± 0.05 % dose/g
Biodistribution: Tail ([3]; normal CD-1 male mice, 120 min): 0.55 ± 0.04 % dose/g
Biodistribution: Testes ([3]; normal CD-1 male mice, 120 min): 0.68 ± 0.06 % dose/g
Biodistribution: Blood ([3]; 2 min): 7.94 ± 0.52 % dose/g
Biodistribution: Bone ([3]; 2 min): 2.16 ± 0.11 % dose/g
Biodistribution: Brain ([3]; 2 min): 0.19 ± 0.02 % dose/g
Biodistribution: Heart ([3]; 2 min): 4.33 ± 0.11 % dose/g
Biodistribution: Kidney ([3]; 2 min): 50.32 ± 3.31 % dose/g
Biodistribution: Liver ([3]; 2 min): 2.97 ± 0.24 % dose/g
Biodistribution: Lung ([3]; 2 min): 5.75 ± 0.26 % dose/g
Biodistribution: Muscle ([3]; 2 min): 1.97 ± 0.16 % dose/g
Biodistribution: Pancreas ([3]; 2 min): 2.18 ± 0.04 % dose/g
Biodistribution: Skin ([3]; 2 min): 2.38 ± 0.10 % dose/g
Biodistribution: Spleen ([3]; 2 min): 3.86 ± 0.57 % dose/g
Biodistribution: Blood ([3]; 30 min): 1.13 ± 0.13 % dose/g
Biodistribution: Bone ([3]; 30 min): 0.60 ± 0.02 % dose/g
Biodistribution: Brain ([3]; 30 min): 0.05 ± 0.01 % dose/g
Biodistribution: Heart ([3]; 30 min): 0.98 ± 0.06 % dose/g
Biodistribution: Kidney ([3]; 30 min): 73.96 ± 5.56 % dose/g
Biodistribution: Liver ([3]; 30 min): 0.95 ± 0.11 % dose/g
Biodistribution: Lung ([3]; 30 min): 2.63 ± 0.08 % dose/g
Biodistribution: Muscle ([3]; 30 min): 0.67 ± 0.05 % dose/g
Biodistribution: Pancreas ([3]; 30 min): 0.80 ± 0.09 % dose/g
Biodistribution: Skin ([3]; 30 min): 1.14 ± 0.15 % dose/g
Biodistribution: Spleen ([3]; 30 min): 1.70 ± 0.44 % dose/g
Biodistribution: Blood ([3]; 60 min): 0.48 ± 0.11 % dose/g
Biodistribution: Bone ([3]; 60 min): 0.38 ± 0.04 % dose/g
Biodistribution: Brain ([3]; 60 min): 0.03 ± 0.00 % dose/g
Biodistribution: Heart ([3]; 60 min): 0.40 ± 0.09 % dose/g
Biodistribution: Kidney ([3]; 60 min): 62.77 ± 12.55 % dose/g
Biodistribution: Liver ([3]; 60 min): 0.54 ± 0.09 % dose/g
Biodistribution: Lung ([3]; 60 min): 1.28 ± 0.31 % dose/g
Biodistribution: Muscle ([3]; 60 min): 0.31 ± 0.07 % dose/g
Biodistribution: Pancreas ([3]; 60 min): 0.52 ± 0.02 % dose/g
Biodistribution: Skin ([3]; 60 min): 0.58 ± 0.19 % dose/g
Biodistribution: Spleen ([3]; 60 min): 1.71 ± 0.66 % dose/g
Biodistribution: Blood ([3]; 120 min): 0.27 ± 0.07 % dose/g
Biodistribution: Bone ([3]; 120 min): 0.26 ± 0.01 % dose/g
Biodistribution: Brain ([3]; 120 min): 0.02 ± 0.00 % dose/g
Biodistribution: Heart ([3]; 120 min): 0.22 ± 0.06 % dose/g
Biodistribution: Kidney ([3]; 120 min): 49.00 ± 4.76 % dose/g
Biodistribution: Liver ([3]; 120 min): 0.37 ± 0.06 % dose/g
Biodistribution: Lung ([3]; 120 min): 0.61 ± 0.07 % dose/g
Biodistribution: Muscle ([3]; 120 min): 0.16 ± 0.01 % dose/g
Biodistribution: Pancreas ([3]; 120 min): 0.32 ± 0.02 % dose/g
Biodistribution: Skin ([3]; 120 min): 0.26 ± 0.02 % dose/g
Biodistribution: Spleen ([3]; 120 min): 1.39 ± 0.38 % dose/g
Binding in LNCaP tumor and kidney with 2-PMPA co-injection, in words ([4]; 2-PMPA 2 mg/kg co-injected): binding was abolished in the LNCaP tumor and kidney tissue
PC-3 (PSMA negative) tumor uptake in microPET, in words [4, 5]: did not show any uptakes
Uptake in microPET images, in words [4, 5]: uptake was seen only in the kidneys, bladder and PSMA positive LNCaP tumor
